Activity calls are given as the source filed them. The rule behind the calls is not given here.
Key:
[1] = target: T1, Bombesin receptor subtype-3 (Homo sapiens) (UniProt P32247); assay: Agonist activity at human BRS-3 expressed in HEK293AEQ cells assessed as bioluminescence for 10 mins by aequorin bioluminescence assay relative to dY-peptide; type: functional, cell-based
T1 sequence (whole entry): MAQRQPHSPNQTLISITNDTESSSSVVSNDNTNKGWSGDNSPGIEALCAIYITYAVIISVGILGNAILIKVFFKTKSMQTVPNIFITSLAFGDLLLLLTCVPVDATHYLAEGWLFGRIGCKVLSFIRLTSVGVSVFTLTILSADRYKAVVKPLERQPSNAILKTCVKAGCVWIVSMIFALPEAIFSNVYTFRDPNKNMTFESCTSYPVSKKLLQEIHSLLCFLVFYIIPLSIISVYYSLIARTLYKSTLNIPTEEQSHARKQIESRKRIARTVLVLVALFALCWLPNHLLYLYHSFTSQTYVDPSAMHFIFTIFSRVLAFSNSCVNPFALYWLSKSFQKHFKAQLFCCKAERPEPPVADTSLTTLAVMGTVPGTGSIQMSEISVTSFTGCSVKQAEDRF

[2] = target: T2, Bombesin receptor subtype-3 (Mus musculus, UniProt O54798); assay: Agonist activity at mouse BRS-3 expressed in HEK293AEQ cells assessed as bioluminescence for 10 mins by aequorin bioluminescence assay; type: functional, cell-based
T2 sequence (O54798 whole entry): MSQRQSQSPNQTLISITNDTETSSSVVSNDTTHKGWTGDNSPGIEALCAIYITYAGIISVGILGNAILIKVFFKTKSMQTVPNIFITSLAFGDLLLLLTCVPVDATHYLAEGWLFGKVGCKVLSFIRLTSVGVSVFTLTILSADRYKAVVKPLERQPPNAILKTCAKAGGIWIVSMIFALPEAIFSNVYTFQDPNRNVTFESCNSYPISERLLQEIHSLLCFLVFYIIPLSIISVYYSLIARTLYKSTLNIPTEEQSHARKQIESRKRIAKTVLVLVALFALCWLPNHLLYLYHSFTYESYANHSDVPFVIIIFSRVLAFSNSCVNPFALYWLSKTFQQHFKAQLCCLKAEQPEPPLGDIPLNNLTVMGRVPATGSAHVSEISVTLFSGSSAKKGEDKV

Mus musculus [3] = assay: Increase of core body temperature in DIO mouse assessed as AUC (1 to 6 hrs) of body temperature changes at 3 mg/kg by fasted temperature PD assay; type: functional
[4] = target: T3, Nuclear receptor subfamily 1 group I member 2 (Homo sapiens, UniProt O75469); assay: Activation of PXR at 10 uM
T3 sequence (O75469 whole entry): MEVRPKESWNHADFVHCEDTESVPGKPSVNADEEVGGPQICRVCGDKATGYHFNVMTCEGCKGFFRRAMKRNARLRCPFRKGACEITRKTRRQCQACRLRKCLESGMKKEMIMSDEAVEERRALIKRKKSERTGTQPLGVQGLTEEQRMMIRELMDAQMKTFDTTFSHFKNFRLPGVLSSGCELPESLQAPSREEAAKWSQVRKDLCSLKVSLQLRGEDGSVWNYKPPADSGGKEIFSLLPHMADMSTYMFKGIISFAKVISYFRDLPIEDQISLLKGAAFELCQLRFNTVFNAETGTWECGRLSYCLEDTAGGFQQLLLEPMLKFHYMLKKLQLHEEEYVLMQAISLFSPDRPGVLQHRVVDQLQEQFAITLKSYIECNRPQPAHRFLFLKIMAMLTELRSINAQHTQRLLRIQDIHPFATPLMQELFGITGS

[5] = target: T4, Bombesin receptor subtype-3 (Homo sapiens, UniProt P32247); assay: Agonist activity at human BRS-3 expressed in HEK293AEQ cells assessed as bioluminescence for 10 mins by aequorin bioluminescence assay; type: functional, cell-based
T4 sequence (P32247 whole entry): T1 sequence (whole entry)

[6] = target: T5, Bombesin receptor subtype-3 (Mus musculus) (UniProt O54798); assay: Agonist activity at mouse BRS-3 expressed in HEK293AEQ cells assessed as bioluminescence for 10 mins by aequorin bioluminescence assay relative to dY-peptide; type: functional, cell-based
T5 sequence (whole entry): T2 sequence (O54798 whole entry)

[7] = target: T3, Nuclear receptor subfamily 1 group I member 2; assay: Activation of PXR
[8] = target: T4, Bombesin receptor subtype-3; assay: Displacement of [125I]-dY-peptide from human BRS-3 expressed in NFAT-CHO cells after 2 hrs by liquid scintillation counting; type: cell-based
[9] = Oral bioavailability in Sprague-Dawley rat at 1 mg/kg; type: ADME, organism-based; conditions: in vivo
[10] = Half life in Sprague-Dawley rat at 0.5 mg/kg, iv; type: ADME, organism-based; set-up: dose 0.5 mg/kg, route intravenous; conditions: in vivo
[11] = Plasma clearance in Sprague-Dawley rat at 0.5 mg/kg, iv; type: ADME, organism-based; set-up: dose 0.5 mg/kg, route intravenous
Rattus norvegicus [12] = assay: Antiobesity activity in DIO Sprague-Dawley rat assessed as reduction of body weight at 3 mg/kg, po administered bid for 12 days; type: functional; set-up: scale not given: the % may be the effect or the level left
[13] = Oral bioavailability in dog at 1 mg/kg; type: ADME, organism-based, Canis lupus familiaris; conditions: in vivo
[14] = Half life in dog at 0.5 mg/kg, iv; type: ADME, organism-based, Canis lupus familiaris; set-up: dose 0.5 mg/kg, route intravenous; conditions: in vivo
Canis familiaris [15] = assay: Dose normalized AUC in dog at 1 mg/kg, po; type: ADME, organism-based, Canis lupus familiaris; set-up: dose 1 mg/kg, route oral; conditions: in vivo
[16] = Oral bioavailability in rhesus monkey at 1 mg/kg; type: ADME, organism-based, Macaca mulatta; conditions: in vivo
Mus musculus [17] = assay: Antiobesity activity in BRS-3 knock out DIO C57BL/6 mouse assessed as reduction of food intake at 100 mg/kg, po after 18 hrs; type: functional, organism-based; set-up: dose 100 mg/kg
Rhesus monkey = assay: Dose normalized AUC in rhesus monkey at 1 mg/kg, po; type: ADME, organism-based, Macaca mulatta; set-up: dose 1 mg/kg, route oral; conditions: in vivo
Rattus norvegicus [18] = assay: Antiobesity activity in DIO Sprague-Dawley rat assessed as increase in metabolic rate at 15 to 50 mg/kg, po administered bid for 12 days; type: functional, organism-based
Rattus norvegicus [19] = assay: Antiobesity activity in DIO Sprague-Dawley rat assessed as reduction of body weight at 50 mg/kg, po administered bid for 12 days; type: functional; set-up: scale not given: the % may be the effect or the level left
Rattus norvegicus [20] = assay: Dose normalized AUC in Sprague-Dawley rat at 1 mg/kg, po; type: ADME, organism-based; set-up: dose 1 mg/kg, route oral; conditions: in vivo
[21] = Half life in rhesus monkey at 0.5 mg/kg, iv; type: ADME, organism-based, Macaca mulatta; set-up: dose 0.5 mg/kg, route intravenous; conditions: in vivo
[22] = Plasma clearance in rhesus monkey at 0.5 mg/kg, iv; type: ADME, organism-based, Macaca mulatta; set-up: dose 0.5 mg/kg, route intravenous
Canis familiaris [23] = assay: Antiobesity activity in obese Beagle dog assessed as reduction of body weight at 5 to 15 mg/kg, po administered for 7 days relative to control; type: functional, Canis lupus familiaris; set-up: scale not given: the % may be the effect or the level left; conditions: dose mg/kg 5-15
Rattus norvegicus [24] = assay: Toxicity in DIO Sprague-Dawley rat assessed as tachyphylaxis at 15 to 50 mg/kg, po administered bid for 12 days; type: organism-based; set-up: dose 15-50 mg/kg, route oral; conditions: in vivo, 288 h
Mus musculus [25] = assay: Antiobesity activity in po dosed wild type DIO C57 mouse assessed as reduction of food intake; type: functional, organism-based
Mus musculus [26] = assay: Antiobesity activity in po dosed wild type DIO C57 mouse assessed as reduction of body weight; type: functional, organism-based
[27] = Plasma clearance in dog at 0.5 mg/kg, iv; type: ADME, organism-based, Canis lupus familiaris; set-up: dose 0.5 mg/kg, route intravenous
Rattus norvegicus [28] = assay: Antiobesity activity in DIO Sprague-Dawley rat assessed as reduction of body weight at 15 mg/kg, po administered bid for 12 days; type: functional; set-up: scale not given: the % may be the effect or the level left

CC(C)(C)c1ccc(S(=O)(=O)N2Cc3ccc(C(F)(F)F)nc3Nc3cccc(-c4cccnc4)c32)cc1
Activity [1]: 99% | EC50 [2]: 58 nM | Activity (Mus musculus [3]): -0.99 degreeC.hr | Activity [4]: 77% | EC50 [5]: 42 nM | Activity [6]: 105% | EC50 [7]: 1800 nM | IC50 [8]: 1.72 nM

CC(C)(C)c1ccc(S(=O)(=O)N2Cc3ccc(C(F)(F)F)nc3Nc3cccc(-c4ncon4)c32)cc1
Activity [1]: 102% | EC50 [2]: 57 nM | Activity (Mus musculus [3]): 2.1 degreeC.hr | Activity [4]: 53% | EC50 [5]: 40 nM | Activity [6]: 116% | EC50 [7]: 11800 nM | IC50 [8]: 1.1 nM

CC(C)c1ccc(S(=O)(=O)N2Cc3ccc(C(F)(F)F)nc3Nc3cccc(-c4noc(C(C)(C)O)n4)c32)cc1
EC50 [2]: 147 nM | Activity (Mus musculus [3]): 4.93 degreeC.hr | bioavailability [9]: 8% | Activity [4]: 80% | Activity [6]: 114% | EC50 [7]: 2400 nM | half-life [10]: 1.6 h | IC50 [8]: 1.7 nM | clearance [11]: 49 mL/min/kg

CCNC(C)Cc1cccc(C(F)(F)F)c1 (stereo unspecified) [FENFLURAMINE]
Activity (Rattus norvegicus [12]): 6.2%

CC(C)(O)c1nc(-c2cccc3c2N(S(=O)(=O)c2ccc(OC(F)(F)F)cc2)Cc2ccc(C(F)(F)F)nc2N3)no1
bioavailability [13]: 100% | half-life [14]: 18 h | AUC/dose (Canis familiaris [15]): 10 µM·kg·h/mg | Activity (Mus musculus [3]): 5.6 degreeC.hr | bioavailability [16]: 58% | Activity (Mus musculus [17]): inactive | AUC/dose (Rhesus monkey): 12 µM·kg·h/mg | Activity (Rattus norvegicus [18]): Active | Activity (Rattus norvegicus [19]): 3.2% | Activity [4]: 17% | AUC/dose (Rattus norvegicus [20]): 1.6 µM·kg·h/mg | half-life [21]: 33 h | clearance [22]: 1.3 mL/min/kg | Activity (Canis familiaris [23]): 4% | Activity (Rattus norvegicus [24]): Non-toxic | Activity [6]: 106% | Activity (Mus musculus [25]): Dose-dependent effect | Activity (Mus musculus [26]): Dose-dependent effect | EC50 [7]: > 30000 nM | clearance [27]: 2.9 mL/min/kg | Activity (Rattus norvegicus [28]): 4%

CC(C)(C)c1ccc(S(=O)(=O)N2Cc3ccc(C(F)(F)F)nc3Nc3cccc(-c4noc(C(C)(C)O)n4)c32)cc1
Activity [1]: 106% | EC50 [2]: 83 nM | Activity (Mus musculus [3]): 2.6 degreeC.hr | bioavailability [9]: 14% | Activity [4]: 13% | AUC/dose (Rattus norvegicus [20]): 0.65 µM·kg·h/mg | EC50 [5]: 52 nM | Activity [6]: 117% | EC50 [7]: > 10000 nM | half-life [10]: 1.9 h | IC50 [8]: 0.9 nM | clearance [11]: 44 mL/min/kg

CC(C)(O)c1nc(-c2cccc3c2N(S(=O)(=O)c2ccc(C(F)(F)F)cc2)Cc2ccc(C(F)(F)F)nc2N3)no1
EC50 [2]: 95 nM | Activity (Mus musculus [3]): 5.22 degreeC.hr | bioavailability [9]: 100% | Activity [4]: 6% | AUC/dose (Rattus norvegicus [20]): 1.05 µM·kg·h/mg | Activity [6]: 97% | EC50 [7]: > 30000 nM | half-life [10]: 2.5 h | IC50 [8]: 8.3 nM | clearance [11]: 33 mL/min/kg

C[C@@H](O)c1nc(-c2cccc3c2N(S(=O)(=O)c2ccc(C(C)(C)C)cc2)Cc2ccc(C(F)(F)F)nc2N3)no1
Activity [1]: 107% | EC50 [2]: 134 nM | Activity (Mus musculus [3]): 0.4 degreeC.hr | bioavailability [9]: 11% | Activity [4]: 18% | AUC/dose (Rattus norvegicus [20]): 0.9 µM·kg·h/mg | EC50 [5]: 69 nM | Activity [6]: 112% | EC50 [7]: > 25000 nM | half-life [10]: 1.8 h | IC50 [8]: 1.9 nM | clearance [11]: 33 mL/min/kg

From ChEMBL document CHEMBL2163341, “Discovery of MK-7725, A Potent, Selective Bombesin Receptor Subtype-3 Agonist for the Treatment of Obesity” (ACS Med Chem Lett, 2012)
